Test results reported in PMC9102953, “New Derivatives of 5-Substituted Uracils: Potential Agents with a Wide Spectrum of Biological Activity” (Molecules, 2022).
Like-named read-outs stand apart in the source and are kept apart here.

Tests used:
[1] = system: yellow fever virus (YFV) strain 17 D; assay: microbe, parasite or virus in culture; type: cell-based; conditions: Yellow fever virus, Huh-7, read-out: EC50 (μM) YFV 17D, Huh7
a variety of RNA viruses = type: cell-based
[2] = system: respiratory syncytial virus (RSV) strain A Long; assay: microbe, parasite or virus in culture; type: cell-based; conditions: human respiratory syncytial virus, HEL 299, read-out: EC50 (μM) RSV A Long, HEL 299
[3] = system: HEL299, Huh 7 and MDCK cells
HCoV-OC43 = assay: Antiviral cytopathicity assay, HCoV-OC43 in HEL 299 cells; type: cell-based
in vitro [4] = conditions: dog
in vitro [5] = conditions: human
in vitro [6] = conditions: human; remark: listed apart in the source
[7] = system: human cytomegalovirus (HCMV) strain Davis; assay: microbe, parasite or virus in culture; type: cell-based; conditions: Human betaherpesvirus 5, HEL, read-out: EC50, formation of viral plaques, cytomegalovirus strain Davis
[8] = system: human cytomegalovirus (HCMV) strain AD-169; assay: microbe, parasite or virus in culture; type: cell-based; conditions: Human betaherpesvirus 5, AD169, HEL, read-out: EC50, formation of viral plaques, cytomegalovirus strain AD169
HEL cells = assay: Change of cell morphology in HEL cells; type: cell-based, human
[9] = system: varicella-zoster virus (VZV) strain TK−; assay: microbe, parasite or virus in culture; type: cell-based; conditions: Human alphaherpesvirus 3, HEL, read-out: EC50, formation of viral plaques, TK-varicella-zoster virus strain
[10] = Betacoronavirus 1, OC43, HEL 299, read-out: EC50 (μM) HCoV-OC43, HEL 299
[11] = Betacoronavirus 1, OC43, HEL 299 cells, reduction of virus-induced cytopathicity by 50%, read-out: EC50 (μM) HCoV-OC43, HEL 299

SMILES | melting point | EC50 [1] | antiviral activity in the screening (in words) (a variety of RNA viruses) | EC50 [2] | cytotoxicity in the tested cell lines (in words) [3] | EC50 (HCoV-OC43; [10]) | CC50 (in vitro [4]) | CC50 (in vitro [5]) | CC50 (in vitro [6]) | biological activity against HCoV OC43 (in words) (HCoV-OC43) | EC50 [7] | EC50 [8] | minimum concentration that leads to the detection of changes in cell morphology (HEL cells) | EC50 [9] | EC50 (HCoV-OC43; [11])
O=c1[nH]cc(N2CCc3ccccc3C2)c(=O)[nH]1 | 311 to 312 °C | – | – | – | – | – | – | – | – | – | – | – | – | – | –
CCCCCCc1ccc(Nc2cn(C3C=CC(O)C3)c(=O)[nH]c2=O)cc1 (racemic) [(±)-3d, (±)-1-(4′-Hydroxycyclopent-2′-en-1′-yl)-5-((4′-hexylphenyl)amino)uracil] | – | > 100 µM | did not show any activity | > 100 µM | marked cytotoxicity | > 100 µM | 30 µM | – | – | – | – | – | – | – | –
CC(C)(C)c1ccc(Nc2cn(C3C=CC(O)C3)c(=O)[nH]c2=O)cc1 (racemic) [(±)-3e, (±)-1-(4′-Hydroxycyclopent-2′-en-1′-yl)-5-((4″-tert-butyl)phenylamino)uracil] | – | > 100 µM | did not show any activity | > 100 µM | marked cytotoxicity | > 100 µM | 63 µM | > 100 µM | > 100 µM | – | – | – | – | – | –
CCCCCCc1ccc(Nc2cn(C3C=CC(O)C3)c(=O)n(C3C=CC(O)C3)c2=O)cc1 (racemic) [(±)-4d, (±)-1-(4′-hydroxycyclopent-2′-en-1′-yl)-3-(4‴-hydroxycyclopent-2‴-en-1‴-yl)-5-(-((4″-hexylphenyl)amino)uracil] | – | > 100 µM | – | > 100 µM | – | 28.7 µM | 51.2 µM | > 100 µM | > 100 µM | moderate biological activity | – | – | – | – | –
CC(C)(C)c1ccc(Nc2cn(C3C=CC(O)C3)c(=O)n(C3C=CC(O)C3)c2=O)cc1 (racemic) [(±)-4e, (±)-1-(1-(4′-hydroxycyclopent-2′-ene-1′-yl))-3-(4‴-hydroxycyclopent-2‴-en-1‴-yl)-5-((4″-tert-butyl)phenylamino)uracil] | – | > 100 µM | did not show any activity | > 100 µM | marked cytotoxicity | – | 19.5 µM | – | – | – | 40.9 µM | 76.5 µM | greater than 100 μM | 48.9 µM | > 100 µM
CCCCCCCc1ccc(Nc2cn(C3C=CC(O)C3)c(=O)n(C3C=CC(O)C3)c2=O)cc1 (racemic) [(±)-4f, (±)-1-(4′-hydroxycyclopent-2′-en-1′-yl)-3-(4‴-hydroxycyclopent-2‴-en-1‴-yl)-5-(-((4″-heptylphenyl)amino)uracil] | – | > 100 µM | – | > 100 µM | – | > 100 µM | > 100 µM | > 100 µM | > 100 µM | – | – | – | – | – | –
Cc1cc(C)cc(Oc2cn(C3C=CC(O)C3)c(=O)[nH]c2=O)c1 (racemic) [(±)-10a, (±)-1-(4′-Hydroxycyclopent-2′-en-1′-yl)-5-(3″,5″-dimethylphenoxy)uracil] | – | > 100 µM | did not show any activity | > 100 µM | marked cytotoxicity | > 100 µM | 33.8 µM | > 100 µM | > 100 µM | – | – | – | – | – | –
CCCCOc1ccc(Oc2cn(C3C=CC(O)C3)c(=O)[nH]c2=O)cc1 (racemic) [(±)-10b, (±)-1-(4′-Hydroxycyclopent-2′-en-1′-yl)-5-(4″-butoxyphenoxy)uracil] | – | > 100 µM | – | > 100 µM | – | > 100 µM | > 100 µM | > 100 µM | > 100 µM | – | – | – | – | – | –
O=c1[nH]c(=O)n(C2C=CC(O)C2)cc1Oc1ccc(Cl)cc1 (racemic) [(±)-10c, (±)-1-(4′-Hydroxycyclopent-2′-en-1′-yl)-5-(4″-chlorophenoxy)uracil] | – | > 100 µM | – | > 100 µM | – | > 100 µM | > 100 µM | > 100 µM | > 100 µM | – | – | – | – | – | –
CC(C)(C)c1ccc(Oc2cn(C3C=CC(O)C3)c(=O)[nH]c2=O)cc1 (racemic) [(±)-10d, (±)-1-(4′-Hydroxycyclopent-2′-en-1′-yl)-5-(4″-(tert-butyl)phenoxy)uracil] | – | > 100 µM | – | > 100 µM | – | > 100 µM | > 100 µM | > 100 µM | > 100 µM | – | – | – | – | – | –
O=c1c(Oc2ccc(Cl)cc2)cn(C2C=CC(O)C2)c(=O)n1C1C=CC(O)C1 (racemic) [(±)-11c, (±)-1-(4′-hydroxycyclopent-2′-en-1′-yl)-3-(4‴-hydroxycyclopent-2‴-en-1‴-yl)-5-(4″-chlorophenoxy)uracil] | – | > 100 µM | did not show any activity | > 100 µM | marked cytotoxicity | > 100 µM | 47.4 µM | > 100 µM | > 100 µM | – | – | – | – | – | –
O=c1[nH]cc(N2CCCCCC2)c(=O)[nH]1 [Compound 2a, 5-(Azepan-1-yl)uracil] | – | > 100 µM | – | > 100 µM | – | – | > 100 µM | > 100 µM | > 100 µM | – | – | – | – | – | > 100 µM
O=c1[nH]cc(N2CCN(c3ccccc3)CC2)c(=O)[nH]1 [Compound 2b, 5-(4-Phenylpiperazin-1-yl)uracil] | 352 to 354.5 °C | > 100 µM | – | > 100 µM | – | – | > 100 µM | > 100 µM | > 100 µM | – | – | – | – | – | > 100 µM
CCCCCCc1ccc(Nc2c[nH]c(=O)[nH]c2=O)cc1 [Compound 2d, 5-((4′-Hexylphenyl)amino)uracil] | 332 to 333 °C | > 100 µM | – | > 100 µM | – | – | > 100 µM | > 100 µM | > 100 µM | – | – | – | – | – | > 100 µM
CC(C)(C)c1ccc(Nc2c[nH]c(=O)[nH]c2=O)cc1 [Compound 2e, 5-((4′-tert-Butylphenyl)amino)uracil] | 354.5 to 356.5 °C | > 100 µM | – | > 100 µM | – | – | > 100 µM | > 100 µM | > 100 µM | – | – | – | – | – | > 100 µM
Cc1cc(C)cc(Oc2c[nH]c(=O)[nH]c2=O)c1 [Compound 5a, 5-(3,5-Dimethylphenoxy)uracil] | 293 to 295 °C | > 100 µM | – | > 100 µM | – | – | > 100 µM | > 100 µM | > 100 µM | – | – | – | – | – | > 100 µM
CCCCOc1ccc(Oc2c[nH]c(=O)[nH]c2=O)cc1 [Compound 5b, 5-(4-Butoxyphenoxy)uracil] | 271 to 274 °C | > 100 µM | – | > 100 µM | – | – | > 100 µM | > 100 µM | > 100 µM | – | – | – | – | – | > 100 µM
O=c1[nH]cc(Oc2ccc(Cl)cc2)c(=O)[nH]1 [Compound 5c, 5-(4-Chlorophenoxy)uracil] | 331 to 333 °C | > 100 µM | – | > 100 µM | – | – | > 100 µM | > 100 µM | > 100 µM | – | – | – | – | – | > 100 µM
CC(C)(C)c1ccc(Oc2c[nH]c(=O)[nH]c2=O)cc1 [Compound 5d, 5-(4-tert-Butylphenoxy)uracil] | 273 to 275 °C | > 100 µM | – | > 100 µM | – | – | > 100 µM | > 100 µM | > 100 µM | – | – | – | – | – | > 100 µM
